Laboratory results taken from ChEMBL document CHEMBL4616634, “4β-Hydroxywithanolide E from Goldenberry (Whole Fruits of Physalis peruviana L.) as a Promising Agent against Chronic Obstructive Pulmonary Disease” (J Nat Prod, 2020).
Calls of active or inactive are those of the source. The calls are words filed in the database; no cut-off is given here.

What was measured:
[1] = molecular target: T1, Nuclear factor erythroid 2-related factor 2 (Homo sapiens) (UniProt Q16236); assay: Activation of Nrf2 in human MDA-MB-231 cells assessed as increase in ARE luciferase activity at 2 uM incubated for 16 hrs by luciferase reporter gene assay; assay type: cell-based
T1 sequence (whole entry): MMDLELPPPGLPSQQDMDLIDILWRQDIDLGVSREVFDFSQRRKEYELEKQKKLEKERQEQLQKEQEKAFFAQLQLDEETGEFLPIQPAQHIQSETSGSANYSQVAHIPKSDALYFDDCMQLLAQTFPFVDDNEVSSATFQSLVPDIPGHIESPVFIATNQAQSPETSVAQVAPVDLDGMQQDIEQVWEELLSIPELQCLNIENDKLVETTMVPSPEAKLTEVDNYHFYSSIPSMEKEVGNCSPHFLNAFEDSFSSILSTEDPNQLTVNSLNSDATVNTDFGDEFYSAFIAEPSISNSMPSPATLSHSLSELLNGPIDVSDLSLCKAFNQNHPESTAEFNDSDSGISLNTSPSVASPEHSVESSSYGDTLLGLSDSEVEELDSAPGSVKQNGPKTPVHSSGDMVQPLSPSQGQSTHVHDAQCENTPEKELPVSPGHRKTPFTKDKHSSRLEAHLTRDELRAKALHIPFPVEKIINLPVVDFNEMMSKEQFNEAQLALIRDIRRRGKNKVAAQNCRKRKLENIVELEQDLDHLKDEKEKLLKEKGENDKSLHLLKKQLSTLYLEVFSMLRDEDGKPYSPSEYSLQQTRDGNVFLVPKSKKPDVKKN

[2] = molecular target: T1, Nuclear factor erythroid 2-related factor 2 (Homo sapiens); assay: Activation of Nrf2 in human MDA-MB-231 cells assessed as increase in ARE luciferase activity at > 4 uM incubated for 16 hrs by luciferase reporter gene assay; assay type: cell-based
MDA-MB-231 = assay: Cytotoxicity against human MDA-MB-231 cells assessed as decrease in cell viability at 0.13 to 10 uM after 24 to 48 hrs by MTT assay; assay type: cell-based; conditions: mda-mb-231, 10 µM
[3] = molecular target: T1, Nuclear factor erythroid 2-related factor 2 (Homo sapiens); assay: Activation of Nrf2 in human MDA-MB-231 cells assessed as increase in luciferase activity incubated for 16 hrs by dual luciferase reporter gene assay; assay type: cell-based
[4] = molecular target: T1, Nuclear factor erythroid 2-related factor 2 (Homo sapiens); assay: Activation of Nrf2 in human MDA-MB-231 cells assessed as increase in NQO1 protein level at 0.5 uM incubated for 16 hrs by immunoblot analysis; assay type: cell-based
[5] = molecular target: T1, Nuclear factor erythroid 2-related factor 2 (Homo sapiens); assay: Activation of Nrf2 in human MDA-MB-231 cells assessed as increase in GCLM protein level at 0.5 uM incubated for 16 hrs by immunoblot analysis; assay type: cell-based
[6] = molecular target: T1, Nuclear factor erythroid 2-related factor 2 (Homo sapiens); assay: Activation of Nrf2 in human BEAS2B cells assessed as increase in KEAP1 protein expression at 0.25 to 2 uM incubated for 12 hrs by immunoblot analysis; assay type: cell-based
[7] = molecular target: T1, Nuclear factor erythroid 2-related factor 2 (Homo sapiens); assay: Activation of Nrf2 in human BEAS2B cells assessed as increase in Nrf2 protein expression at 1 uM incubated for 24 hrs by immunoblot analysis; assay type: cell-based
[8] = molecular target: T1, Nuclear factor erythroid 2-related factor 2 (Homo sapiens); assay: Activation of Nrf2 in human BEAS2B cells assessed as increase in luciferase activity at 0.25 to 2 uM incubated for 18 hrs by dual luciferase reporter gene assay; assay type: cell-based
[9] = molecular target: T1, Nuclear factor erythroid 2-related factor 2 (Homo sapiens); assay: Activation of Nrf2 in human BEAS2B cells assessed as increase in Nrf2 accumulation in nucleus at 1 uM incubated for 8 hrs by immunoblot analysis; assay type: cell-based
[10] = molecular target: T1, Nuclear factor erythroid 2-related factor 2 (Homo sapiens); assay: Stabilization of Nrf2 in human BEAS2B cells assessed as protein half life at 1 uM after 8 hrs in presence of CHX by immunoblot analysis (reference value: 12.9 min); assay type: cell-based
[11] = molecular target: Keap1/Nrf2 (Homo sapiens) (UniProt Q16236+Q14145); assay: Inhibition of Nrf2-KEAP1 (unknown origin) transfected in BEAS2B cells assessed as decrease in ratio of Nrf2 to Keap1 at 5 uM incubated for 24 hrs by immunoblot analysis; assay type: cell-based
Chain of Keap1/Nrf2 (Homo sapiens) (Q14145 whole entry, looked up, one chain of several): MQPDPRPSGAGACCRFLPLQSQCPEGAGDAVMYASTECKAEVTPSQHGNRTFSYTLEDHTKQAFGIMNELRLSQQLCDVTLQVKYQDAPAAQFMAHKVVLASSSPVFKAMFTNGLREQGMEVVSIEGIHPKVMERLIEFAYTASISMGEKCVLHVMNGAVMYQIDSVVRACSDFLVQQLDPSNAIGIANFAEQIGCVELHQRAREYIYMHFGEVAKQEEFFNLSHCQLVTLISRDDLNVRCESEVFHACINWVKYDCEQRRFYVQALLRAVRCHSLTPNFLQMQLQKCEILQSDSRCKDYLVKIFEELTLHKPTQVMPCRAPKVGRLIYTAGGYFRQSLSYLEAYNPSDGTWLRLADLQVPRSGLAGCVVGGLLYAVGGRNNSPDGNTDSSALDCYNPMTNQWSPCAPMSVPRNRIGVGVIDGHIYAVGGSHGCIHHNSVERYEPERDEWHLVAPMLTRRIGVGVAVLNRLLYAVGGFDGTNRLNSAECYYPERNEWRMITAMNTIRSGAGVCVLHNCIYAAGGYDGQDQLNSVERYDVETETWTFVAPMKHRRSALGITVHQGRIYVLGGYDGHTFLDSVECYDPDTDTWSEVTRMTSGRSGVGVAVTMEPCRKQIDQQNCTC

[12] = molecular target: T1, Nuclear factor erythroid 2-related factor 2 (Homo sapiens); assay: Activation of Nrf2 in human BEAS2B cells harboring Keap1-C288S mutant assessed as increase in Nrf2 protein expression at 2.5 uM after12 hrs in presence of Keap1-siRNA by immunoblot analysis; assay type: cell-based
BEAS-2B = assay: Antioxidant activity in human BEAS2B cells assessed as increase in GSH level incubated for 24 hrs; assay type: functional, cell-based
Danio rerio = species on record: Danio rerio; assay: Inhibition of LPS-induced ROS generation in AB zebra fish oxidative damage model incubated for 24 hrs by DCFH-DA staining based fluorescence assay; assay type: functional, organism-based
RAW264.7 [13] = assay: Inhibition of LPS-induced NFkappaB activation in mouse RAW264.7 cells pre-incubated for 1 hr followed by LPS-stimulation and measured after 16 hrs by dual luciferase reporter gene assay; assay type: cell-based
RAW264.7 [14] = assay: Inhibition of LPS-induced iNOS mRNA expression in mouse RAW264.7 cells at 0.5 to 4 uM preincubated for 1 hr followed by LPS-stimulation and measured after 6 hrs by qRT-PCR analysis; assay type: functional, cell-based
Mus musculus [15] = assay: Antiinflammatory activity in C57BL/6 mouse model of CS-induced pulmonary injury assessed as reduction in thickening of the alveolar septa in lungs at 2 to 4 mg/kg, ip for 5 days by hematoxylin and eosin staining based fluorescence microscopic analysis; assay type: functional, organism-based
Mus musculus [16] = assay: Antiinflammatory activity in C57BL/6 mouse model of CS-induced pulmonary injury assessed as reduction in hyperplasia of pneumo-cytes in lungs at 2 to 4 mg/kg, ip for 5 days by hematoxylin and eosin staining based fluorescence microscopic analysis; assay type: functional, organism-based
Mus musculus [17] = assay: Antioxidant Activity in C57BL/6 mouse model of CS-induced pulmonary injury assessed as increase in SOD level in lungs at 2 to 4 mg/kg, ip for 5 days; assay type: functional, organism-based
Mus musculus [18] = assay: Antioxidant Activity in C57BL/6 mouse model of CS-induced pulmonary injury assessed as decrease in MDA level in lungs at 2 to 4 mg/kg, ip for 5 days; assay type: functional, organism-based
Mus musculus [19] = assay: Antiinflammatory activity in C57BL/6 mouse model of CS-induced pulmonary injury assessed as increase in Nrf2 protein expression in lungs at 2 to 4 mg/kg, ip for 5 days by immunoblot analysis; assay type: functional, organism-based
Mus musculus [20] = assay: Antiinflammatory activity in C57BL/6 mouse model of CS-induced pulmonary injury assessed as reduction in TNFapha protein expression in lungs at 2 to 4 mg/kg, ip for 5 days by ELISA; assay type: functional, organism-based

CC1=C(C)C(=O)O[C@H]([C@](C)(O)[C@]2(O)CC[C@@]3(O)[C@@H]4C[C@H]5O[C@]56[C@@H](O)C=CC(=O)[C@]6(C)[C@H]4CC[C@]23C)C1
fold change (FC) [1]: 8.5
Activity [2]: inactive
Activity (MDA-MB-231): Toxic
Activity [3]: Dose-dependent effect
Activity [4]: Active
Activity [5]: Active
Activity [6]: inactive
Activity [7]: inactive
Activity [8]: Active
Activity [9]: Active
T1/2 [10]: 34.3 min
inhibition [11]: Active
Activity [12]: inactive
Activity (BEAS-2B): Active
inhibition (Danio rerio): Dose-dependent effect
inhibition (RAW264.7 [13]): Dose-dependent effect
inhibition (RAW264.7 [14]): Active
Activity (Mus musculus [15]): Active
Activity (Mus musculus [16]): Active
Activity (Mus musculus [17]): Active
Activity (Mus musculus [18]): Active
Activity (Mus musculus [19]): Active
Activity (Mus musculus [20]): Active
